We go through one compound from US10532113B2, “Polymeric systems and uses thereof in theranostic applications” (Ramot at Tel-Aviv University Ltd., priority 2014, dated 2020).

Experiment [1] relates to HUVEC. Description: Cell viability assay, HPMA conjugate study, HUVEC proliferation. It counts as cell-based. The following applies: Homo sapiens, 96 hours incubation. As to the method: (§1) 4T1 cells (3,000 cells/well), HUVEC (10,000 cells/well) and MDA-MB-231 cells (10,000 cells/well) were plated onto 24-well culture plates in RPMI supplemented with 2% FBS, EBM-2 supplemented with 5% FBS or in DMEM supplemented with 10% FBS respectively, and incubated for 24 hours (37° C.; 5% CO2). The medium was then replaced with RPMI 1640 supplemented with 10% FBS, EGM-2 or DMEM supplemented with 10% FBS. Cells were exposed to PTX and PTX bound-conjugates at serial dilutions, at equivalent dose of the free PTX. Number of viable cells was counted by a Z1 Coulter Counter® Cell and Particle Counter (Beckman Coulter®) following 96 hours of incubation.

The test system of experiment [2] is HUVEC. Description: HUVEC migration scratch assay. The class given is cell-based, human. The note with it: PTX-equivalent concentration 20 nM; 12 h. As to the method: The migration of HUVEC in the presence of PGA-PTX-Cy5 conjugate was evaluated using the scratch assay. The method is based on the observation that, upon creation of a new artificial gap, so called “scratch”, on a confluent cell monolayer, the cells on the edge of the newly created gap will move toward the opening to close the “scratch” until new cell-cell contacts are established again. […] At time zero (t=0) images were taken by phase-contrast microscope in a reference point. Following another 12 h of incubation, images of the reference point were taken again. The samples were analyzed quantitatively by ImageJ software.

Experiment [3] deals with human MDA-MB-231 mammary adenocarcinoma cells. Description: Cell viability assay, PGA-PTX-Cy5 study, MDA-MB-231 cells. The class given is cell-based. The note with it: 72 hours incubation, read-out: IC50, proliferation of MDA-MB-231 cells. As to the method:
(§2) 4T1 cells (8,000 cells/wells), WM239A cells (15,000 cells/well) and MDA-MB-231 cells (10,000/well) were plated onto 24-well culture in RPMI supplemented with 10% FBS, or in DMEM supplemented with 10% FBS respectively, and incubated for 24 hours (37° C.; 5% CO2). The medium was then replaced with RPMI 1640 supplemented with 10% FBS or DMEM supplemented with 10% FBS.
(§3) Cells were exposed to PTX and PTX-bound conjugates at serial dilutions, at equivalent dose of free PTX. Number of viable cells was counted by a Z1 Coulter Counter® Cell and Particle Counter (Beckman Coulter®) following 72 hours of incubation.

Experiment [4] relates to murine 4T1 adenocarcinoma cells. Description: Cell viability assay, PGA-PTX-Cy5 study, 4T1 cells. It counts as cell-based. The note with it: Mus musculus, 72 hours incubation, read-out: IC50, proliferation of 4T1 cells. As to the method:
as §2, §3

Experiment [5] deals with murine 4T1 mammary adenocarcinoma cells. Description: Cell viability assay, HPMA conjugate study, 4T1 cells. It counts as cell-based. The note with it: Mus musculus, 96 hours incubation, read-out: IC50, proliferation of 4T1 cells. As to the method:
as §1

Experiment [6] concerns human MDA-MB-231 mammary adenocarcinoma cells. Description: Cell viability assay, HPMA conjugate study, MDA-MB-231 cells. The class given is cell-based. The note with it: 72 hours incubation (FIG. 10C), read-out: IC50, proliferation of MDA-MB-231 cells. As to the method:
4T1 cells (3,000 cells/well), HUVEC (10,000 cells/well) and MDA-MB-231 cells (10,000 cells/well) were plated onto 24-well culture plates in RPMI supplemented with 2% FBS, EBM-2 supplemented with 5% FBS or in DMEM supplemented with 10% FBS respectively, and incubated for 24 hours (37° C.; 5% CO2). The medium was then replaced with RPMI 1640 supplemented with 10% FBS, EGM-2 or DMEM supplemented with 10% FBS. Cells were exposed to PTX and PTX bound-conjugates at serial dilutions, at equivalent dose of the free PTX. […]

Experiment [7] deals with human WM239A melanoma cells. Description: Cell viability assay, PGA-PTX-Cy5 study, WM239A cells. The class given is cell-based. The following applies: 72 hours incubation, read-out: IC50, proliferation of WM239A cells. As to the method: as §2, §3

For the compound `CC(=O)O[C@H]1C(=O)[C@@]2(C)[C@H]([C@H](OC(=O)c3ccccc3)[C@]3(O)C[C@H](OC(=O)[C@H](O)[C@@H](NC(=O)c4ccccc4)c4ccccc4)C(C)=C1C3(C)C)[C@]1(OC(C)=O)CO[C@@H]1C[C@@H]2O` [PTX, Paclitaxel], the IC50 was about 2 nM with HUVEC [1]; about 2 nM in experiment [3]; about 60 nM in experiment [4]; about 35 nM in experiment [5]; about 0.5 nM in experiment [6]; about 5 nM in experiment [7]. For the same compound, the “HUVEC migration, gap closure” value with HUVEC [2] came out at 20%.
